The compounds below were run against T1, PDE5 enzyme (Homo sapiens, UniProt O76074) (assay: Method 1: Human Platelet PDE5 Enzyme Inhibition Scintillation Proximity Assay). Conditions: METHOD 1: PDE5 IC50, Table B, WO2004096810 examples.
T1 construct: The PDE5 enzyme isolated from human platelets; from tissue; host or cells: human platelets
Format: biochemical
Text: Method 1: Human Platelet PDE5 Enzyme Inhibition Scintillation Proximity Assay
An in vitro assay can be used to evaluate the inhibition of PDE5 enzyme activity by a test compound.
The PDE5 enzyme for use in the assay can be obtained from human platelets by appropriate modification of the method of Thompson, W J et al.; Biochemistry 18(23), 5228-5237, 1979, as described by Ballard S A et al.; J. Urology 159(6), 2164-2171, 1998. The PDE5 enzyme isolated from human platelets can be used to catalyze the hydrolysis of [^3H]cGMP (Amersham Biosciences) to 5′ nucleotide [^3H]GMP. The [^3H]GMP binds to yttrium silicate SPA beads (Amersham Biosciences) and is detected by scintillation counting. More specifically, the effect of the test compound at different concentrations can be evaluated in the assay by contacting the compound with a fixed amount of PDE5 enzyme in the presence of substrate (cGMP or cAMP in a 3:1 ratio unlabelled to [^3H]-labeled). Scintillation counting can be used as described above to determine relative PDE5 enzyme activity. The inhibition of PDE5 enzyme activity is then calculated relative to total PDE5 enzyme activity of uninhibited controls.
PDE5 IC50 Assay: 96-well microtiter plate format
• Buffer A: 20 mM Tris-HCl, 5 mM MgCl2, pH 7.4 • Buffer B: 2 mg/ml BSA in Buffer A (enzyme buffer) • cGMP substrate: Final concentration of 500 nM in assay The amount of ^3H-labeled substrate added depends upon the specific activity of [^3H]cGMP, and the cGMP substrate is diluted with a 10 mM stock of cold cGMP in Buffer A for a final substrate concentration of 500 nM in the assay. • PDE enzyme: Prepared in Buffer B. The dilution factor is determined by enzyme activity. • SPA beads: 20 mg/ml suspension prepared in dH2O.
Stocks of standard and test compounds are prepared at 5 mM in 100% DMSO. The compound is serially diluted in a dilution plate using a 10-point ½ log dilution format. 2 μl of the compound dilution is added in duplicate to the wells of the assay plate. 2 μl of 100% DMSO are added to designated control wells. 25 μl of Buffer A are added to all wells. 25 μl of Buffer B are added to the negative control wells. 25 μl of enzyme are added to the remaining wells. 50 μl of substrate are added to each well. Plates are sealed and incubated for 60 minutes on a plate shaker at 30 C. 50 plof SPA beads are added to stop the reaction. The plates are again sealed and shaken for 15 minutes to allow the beads to bind the GMP product. The beads are allowed to settle for 30 minutes and then read on a NXT TopCount scintillation counter. Data are analyzed with a curve fitting application for plate-based screening. Percent inhibition in this assay is calculated as follows: Inhibition (%)=[(mean maximum−compound value/(mean maximum−mean minimum)]×100.
The IC50 value is determined from sigmoid dose-response curves of enzyme activity versus compound concentration.

Row | SMILES | IC50 [nM]
1 | COCCn1nc(C)c2nc(N3C[C@H](C)NC[C@H]3C)nc(Nc3ccc(C)cn3)c21 [WO2004096810 Example 134] | 6.57
2 | COCCn1nc(C)c2nc(N3C[C@H](C)NC[C@H]3C)nc(Nc3ccncn3)c21 [WO2004096810 Example 135] | 0.92
3 | CCOCCn1nc(C)c2nc(N3C[C@H](C)NC[C@H]3C)nc(Nc3cc(C)ccn3)c21 [WO2004096810 Example 136] | 1.09
4 | CCOCCn1nc(CC)c2nc(N3C[C@H](C)NC[C@H]3C)nc(Nc3cc(C)ccn3)c21 [WO2004096810 Example 139] | 0.55
5 | CCOCCn1nc(CC)c2nc(N3C[C@H](C)NC[C@H]3C)nc(Nc3ccc(C)cn3)c21 [WO2004096810 Example 140] | 1.95
6 | COCCn1nc(C)c2nc(N3C[C@@H](C)NC[C@@H]3C)nc(Nc3cc(C)ccn3)c21 [WO2004096810 Example 142] | 22.7
7 | CCOCCn1nc(C)c2nc(N3C[C@@H](C)NC[C@@H]3C)nc(Nc3cc(C)ccn3)c21 [WO2004096810 Example 145] | 7.15
8 | CCOCCn1nc(C)c2nc(N3C[C@@H](C)NC[C@@H]3C)nc(Nc3ccc(C)cn3)c21 [WO2004096810 Example 146] | 32.1
9 | CCOCCn1nc(CC)c2nc(N3C[C@@H](C)NC[C@@H]3C)nc(Nc3ccc(C)cn3)c21 [WO2004096810 Example 149] | 34.8
10 | CCc1nn(CCOC)c2c(Nc3ccc(C)cn3)nc(N3CCNCC3)nc12 [WO2004096810 Example 151] | 22
11 | CCc1nn(CCOC)c2c(Nc3cc(C)ccn3)nc(N3CCNCC3)nc12 [WO2004096810 Example 152] | 12.1
12 | CCc1nn(CCOC)c2c(Nc3cc(C)ccn3)nc(N[C@H](C)CO)nc12 [WO2004096810 Example 154] | 12.6
13 | COCCn1nc(C)c2nc(N(C)[C@@H]3CCN(C)C3)nc(Nc3cc(C)ccn3)c21 [WO2004096810 Example 155] | 13.4
14 | CCOCCn1nc(C)c2nc(N(C)[C@@H]3CCN(C)C3)nc(Nc3ccncn3)c21 [WO2004096810 Example 157] | 16.7
15 | CCOCCn1nc(CC)c2nc(N(C)[C@@H]3CCN(C)C3)nc(Nc3ccc(C)cn3)c21 [WO2004096810 Example 159] | 16.3
16 | COCCn1nc(C)c2nc(N3CCNCC3)nc(Nc3cc(C)ccn3)c21 [WO2004096810 Example 165] | 10.5
17 | Cc1ccnc(Nc2nc(N3CCNCC3)nc3c(C)nn(Cc4ccccn4)c23)c1 [WO2004096810 Example 167] | 2.95
18 | Cc1ccnc(Nc2nc(N3CCNCC3)nc3c(C)n(CCC(C)C)nc23)c1 [WO2004096810 Example 174] | 432
19 | COCCn1nc(C(C)C)c2nc(N3CCNCC3)nc(Nc3ccc(C)cn3)c21 [WO2004096810 Example 179] | 18.3
20 | CCOCCn1nc(COC)c2nc(N(C)C)nc(Nc3cc(C)ccn3)c21 [WO2004096810 Example 185] | 1.3
21 | CCOCCn1nc(COCC)c2nc(N(C)C)nc(Nc3cc(C)ccn3)c21 [WO2004096810 Example 188] | 0.47
22 | CCOCCn1nc(C)c2nc(N3CCN[C@H](C)C3)nc(Nc3ccc(OC)nc3)c21 [WO2004096810 Example 194] | 0.56
23 | CCOCCn1nc(C)c2nc(N3CCN[C@H](C)C3)nc(Nc3ccc(OC)cn3)c21 [WO2004096810 Example 195] | 0.96
24 | CCOCCn1nc(C)c2nc(N3CCN[C@H](C)C3)nc(Nc3cccc(OC)n3)c21 [WO2004096810 Example 196] | 0.56

More lines, in order of falling IC50, values ahead:

Row | IC50 [nM] | SMILES
25 | 2100 | Cc1ccnc(Nc2nc(N3CCNCC3)nc3c(C)nn(CC(F)(F)F)c23)c1 [WO2004096810 Example 170]
26 | 535 | Cc1ccnc(Nc2nc(N3CCNCC3)nc3c(C)n(CC4CCC4)nc23)c1 [WO2004096810 Example 177]
27 | 396 | Cc1ccnc(Nc2nc(N3CCNCC3)nc3c(C)n(CC4CC4)nc23)c1 [WO2004096810 Example 173]
28 | 341 | CCc1nn(CCOC)c2c(Nc3cc(C)n[nH]3)nc(N3CCNCC3)nc12 [WO2004096810 Example 180]
29 | 274 | Cc1ccnc(Nc2nc(N3CCNCC3)nc3c(C)n(Cc4ccccn4)nc23)c1 [WO2004096810 Example 176]
30 | 81.2 | COCCn1nc(C)c2nc(N3C[C@@H](C)NC[C@@H]3C)nc(Nc3ccc(C)cn3)c21 [WO2004096810 Example 143]
31 | 25.9 | CCOCCn1nc(C)c2nc(N3CCN[C@H](C)C3)nc(Nc3ccc(=O)n(C)c3)c21 [WO2004096810 Example 201]
32 | 19.5 | CCc1nn(CCOC)c2c(Nc3cc(C)ccn3)nc(NCCn3cccn3)nc12 [WO2004096810 Example 153]
33 | 11.5 | Cc1ccnc(Nc2nc(N3CCNCC3)nc3c(C)nn(CC4CCCO4)c23)c1 (centres unmarked) [WO2004096810 Example 166]
34 | 10 | CCOCCn1nc(C)c2nc(N3CCN[C@H](C)C3)nc(Nc3cc(C)cc(C)n3)c21 [WO2004096810 Example 198]
35 | 7.22 | CCOCCn1nc(CC)c2nc(N(C)[C@@H]3CCN(C)C3)nc(Nc3ccncn3)c21 [WO2004096810 Example 160]
36 | 5.34 | COCCn1nc(C)c2nc(N3C[C@@H](C)NC[C@@H]3C)nc(Nc3ccncn3)c21 [WO2004096810 Example 144]
37 | 4.7 | CCOCCn1nc(C)c2nc(N3CCN[C@H](C)C3)nc(Nc3cc(C)ncn3)c21 [WO2004096810 Example 200]
38 | 4.45 | COCCn1nc(C)c2nc(N3C[C@H](C)NC[C@H]3C)nc(Nc3cc(C)ccn3)c21 [WO2004096810 Example 133]
39 | 4.39 | CCOCCn1nc(CC)c2nc(N3C[C@@H](C)NC[C@@H]3C)nc(Nc3cc(C)ccn3)c21 [WO2004096810 Example 148]
40 | 4.03 | CCOCCn1nc(CO)c2nc(N(C)C)nc(Nc3cc(C)ccn3)c21 [WO2004096810 Example 182]

Row | IC50 [nM] | SMILES
41 | 3.13 | CCOCCn1nc(C)c2nc(N3CCN[C@H](C)C3)nc(Nc3cnc(C)c(C)c3)c21 [WO2004096810 Example 199]
42 | 3.06 | CCOCCn1nc(CC)c2nc(N(C)[C@H]3CCN(C)C3)nc(Nc3ccc(C)cn3)c21 [WO2004096810 Example 192]
43 | 2.46 | CCOCCn1nc(C)c2nc(N3C[C@@H](C)NC[C@@H]3C)nc(Nc3ccncn3)c21 [WO2004096810 Example 147]
44 | 1.83 | CCOCCn1nc(CC)c2nc(N3C[C@@H](C)NC[C@@H]3C)nc(Nc3ccncn3)c21 [WO2004096810 Example 150]
45 | 1.8 | CCOCCn1nc(C)c2nc(N(C)[C@@H]3CCN(C)C3)nc(Nc3cc(C)ccn3)c21 [WO2004096810 Example 156]
46 | 1.76 | CCOCCn1nc(C)c2nc(N3CCN[C@H](C)C3)nc(Nc3cccc(C)n3)c21 [WO2004096810 Example 197]
47 | 1.43 | CCOCCn1nc(C)c2nc(N3C[C@H](C)NC[C@H]3C)nc(Nc3ccc(C)cn3)c21 [WO2004096810 Example 137]
48 | 1.01 | CCOCCn1nc(CC)c2nc(N(C)[C@H]3CCN(C)C3)nc(Nc3ccncn3)c21 [WO2004096810 Example 193]
49 | 0.81 | Cc1ccnc(Nc2nc(N3CCNCC3)nc3c(C)nn(CC4CCCCO4)c23)c1 (centres unmarked) [WO2004096810 Example 168]
50 | 0.71 | CCOCCn1nc(CC)c2nc(N(C)[C@@H]3CCN(C)C3)nc(Nc3cc(C)ccn3)c21 [WO2004096810 Example 158]
51 | 0.5 | CCOCCn1nc(C)c2nc(N(C)[C@H]3CCN(C)C3)nc(Nc3cc(C)ccn3)c21 [WO2004096810 Example 161]
52 | 0.39 | CCOCCn1nc(CO)c2nc(N(C)CC)nc(Nc3cc(C)ccn3)c21 [WO2004096810 Example 181]
53 | 0.33 | CCOCCn1nc(C)c2nc(N3C[C@H](C)NC[C@H]3C)nc(Nc3ccncn3)c21 [WO2004096810 Example 138]
54 | 0.24 | CCOCCn1nc(CC)c2nc(N(C)[C@H]3CCN(C)C3)nc(Nc3cc(C)ccn3)c21 [WO2004096810 Example 162]
55 | 0.24 | CCOCCn1nc(C)c2nc(N(C)[C@H]3CCN(C)C3)nc(Nc3ccncn3)c21 [WO2004096810 Example 191]
56 | 0.15 | CCOCCn1nc(CC)c2nc(N3C[C@H](C)NC[C@H]3C)nc(Nc3ccncn3)c21 [WO2004096810 Example 141]

Source: patent US8518956B2, “1-(1-(2-ethoxyethyl)-3-ethyl-7-(4-methylpyridin-2-ylamino)-1H-pyrazolo[4,3-d]pyrimidin-5-yl) piperidine-4-carboxylic acid and salts thereof” (priority 2005, dated 2013)
